Laboratory results: PubChem BioAssay AID212 (DTP/NCI, 2004)
Where “and” joins values, the source holds several entries; their conditions need not be identical. Equal entries are not always repeated. Records with an inconclusive call do not appear. *1 amine or outer side, *2 acyl side, *3 side chain or, on linkers, in order; H or OH if unused. Where a SMILES comes first, the peptide text is derived from it. [ ]: non-standard residue; d: D form. The star is where a group is joined. X2 = CCC(=O)CC1CC(C)CC(C(=O)[*:2])N1[*:1]; X1 = CCCCCCCCC(C)C(=O)*; Aib = CC(C)(N)C(=O)O; X3 = CC(CN(C)CCO)N*

Test system: BDF1 mice, colon carcinoma 38 sc, T/C %
Assay: NCI In Vivo Anticancer Drug Screen. Data for tumor model Colon Carcinoma 38 (subcutaneous) in B6D2F1 (BDF1) mice
Conditions: endpoint: median tumor weight (est.), higher = larger tumour
In short: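 T/C readout: treated group (T) measurement over vehicle control group (C) measurement. Endpoint is survival or tumor size in mice bearing a transplanted tumor.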

[1] = dose: 25.0 mg/kg/injection, schedule: Q07DX002 (ip), vehicle: saline with Tween-80
[2] = dose: 100.0 mg/kg/injection, schedule: Q07DX002 (ip), vehicle: saline with Tween-80
[3] = dose: 200.0 mg/kg/injection, schedule: Q07DX002 (ip), vehicle: saline with Tween-80
[4] = dose: 400.0 mg/kg/injection, schedule: Q07DX002 (ip), vehicle: saline with Tween-80
[5] = dose: 50.0 mg/kg/injection, schedule: Q07DX002 (ip), vehicle: Klucel (hydroxypropylcellulose) (HPC)
[6] = dose: 100.0 mg/kg/injection, schedule: Q07DX002 (ip), vehicle: Klucel (hydroxypropylcellulose) (HPC)
[7] = dose: 200.0 mg/kg/injection, schedule: Q07DX002 (ip), vehicle: Klucel (hydroxypropylcellulose) (HPC)
[8] = dose: 400.0 mg/kg/injection, schedule: Q07DX002 (ip), vehicle: Klucel (hydroxypropylcellulose) (HPC)
[9] = dose: 6.25 mg/kg/injection, schedule: Q07DX002 (ip), vehicle: saline

In the case of C[n+]1c(/C=N/NC(N)=S)ccc2ccccc21, the T/C (dose: 12.5 mg/kg/injection, schedule: Q07DX002 (ip), vehicle: saline with Tween-80) is reported as 115 % of control, the T/C [1] is reported as 83 % of control and the T/C (dose: 50.0 mg/kg/injection, schedule: Q07DX002 (ip), vehicle: saline with Tween-80) is reported as 77 % of control. The T/C [2] was 87 % of control, the T/C [3] was 108 % of control and the T/C [4] was 118 % of control.
For CCOC(=O)c1c[nH]c2oc(/C=N/N3CC(CN4CCOCC4)OC3=O)cc2c1=O (stereo not given), the T/C (dose: 25.0 mg/kg/injection, schedule: Q07DX003 (ip), vehicle: saline) was 116 % of control and 120 % of control, the T/C (dose: 100.0 mg/kg/injection, schedule: Q07DX003 (ip), vehicle: saline) was 93 % of control and 102 % of control and the T/C (dose: 150.0 mg/kg/injection, schedule: Q07DX002 (ip), vehicle: other) was 92 % of control. For the same compound, the T/C (dose: 200.0 mg/kg/injection, schedule: Q07DX003 (ip), vehicle: saline) was 108 % of control and 106 % of control, the T/C (dose: 300.0 mg/kg/injection, schedule: Q07DX002 (ip), vehicle: other) was 59 % of control and the T/C (dose: 600.0 mg/kg/injection, schedule: Q07DX002 (ip), vehicle: other) was 59 % of control. For the same compound, the T/C (dose: 900.0 mg/kg/injection, schedule: Q07DX002 (ip), vehicle: other) was 34 % of control.
For CN(C)c1ccc(C(=C2C=CC(=[N+](C)C)C=C2)c2ccc(N(C)C)cc2)cc1 (tested in a mixture with another compound), the T/C (dose: 0.62 mg/kg/injection, schedule: Q07DX002 (ip), vehicle: saline with Tween-80) was 61 % of control and the T/C (dose: 2.5 mg/kg/injection, schedule: Q07DX002 (ip), vehicle: saline with Tween-80) was 71 % of control.
With CC[C@H]1CN2CCc3cc(OC)c(OC)cc3[C@@H]2C[C@@H]1C[C@H]1NCCc2cc(OC)c(OC)cc21 the T/C (dose: 1.75 mg/kg/injection, schedule: Q07DX002 (ip), vehicle: saline) was 57 % of control, the T/C (dose: 3.5 mg/kg/injection, schedule: Q07DX002 (ip), vehicle: saline) was 74 % of control and the T/C (dose: 7.0 mg/kg/injection, schedule: Q07DX002 (ip), vehicle: saline) was 84 % of control. The T/C (dose: 14.0 mg/kg/injection, schedule: Q07DX002 (ip), vehicle: saline) was 89 % of control and the T/C (dose: 28.0 mg/kg/injection, schedule: Q07DX002 (ip), vehicle: saline) was 74 % of control.
For C[C@]12CCC(=O)C=C1CC[C@@H]1[C@@H]2C(=O)C[C@@]2(C)[C@H]1CC[C@]2(O)C(=O)CO, the T/C (dose: 40.0 mg/kg/injection, schedule: Q07DX003 (ip), vehicle: Klucel (hydroxypropylcellulose) (HPC)) was 74 % of control, the T/C [5] was 117 % of control and the T/C (dose: 80.0 mg/kg/injection, schedule: Q07DX003 (ip), vehicle: Klucel (hydroxypropylcellulose) (HPC)) was 88 % of control. The T/C [6] was 69 % of control, the T/C (dose: 160.0 mg/kg/injection, schedule: Q07DX003 (ip), vehicle: Klucel (hydroxypropylcellulose) (HPC)) was 66 % of control and the T/C [7] was 45 % of control. The T/C (dose: 320.0 mg/kg/injection, schedule: Q07DX003 (ip), vehicle: Klucel (hydroxypropylcellulose) (HPC)) was 74 % of control, the T/C [8] was 53 % of control and the T/C (dose: 640.0 mg/kg/injection, schedule: Q07DX003 (ip), vehicle: Klucel (hydroxypropylcellulose) (HPC)) was 47 % of control. The T/C (dose: 800.0 mg/kg/injection, schedule: Q07DX002 (ip), vehicle: Klucel (hydroxypropylcellulose) (HPC)) was 66 % of control and the T/C (dose: 1200.0 mg/kg/injection, schedule: Q07DX002 (ip), vehicle: Klucel (hydroxypropylcellulose) (HPC)) was 67 % of control.
COCC1OC2OC3C(COC)OC(OC4C(COC)OC(OC5C(COC)OC(OC6C(COC)OC(OC7C(COC)OC(OC8C(COC)OC(OC1C(O)C2O)C(O)C8O)C(O)C7O)C(O)C6O)C(O)C5O)C(O)C4O)C(O)C3O (stereo not given) (tested in a mixture with another compound) was tested, and the T/C (dose: 25.0 mg/kg/injection, schedule: Q07DX002 (ip), vehicle: Klucel (hydroxypropylcellulose) (HPC)) was 72 % of control, the T/C [5] was 68 % of control and the T/C [6] was 53 % of control. The T/C [7] was 69 % of control and the T/C [8] was 95 % of control.
In the case of COc1ccc(C(Cn2ccnc2)Sc2ccc(Cl)c(Cl)c2)cc1 (stereo not given), the T/C [1] is reported as 63 % of control and 87 % of control and the T/C [2] is reported as 114 % of control.
With O=C(Nc1cccc(Cl)c1)ON1C(=O)C2C(C1=O)C1(Cl)C(Cl)C(Cl)C2(Cl)C1(Cl)Cl (stereo not given) the T/C [2] was 95 % of control, the T/C [3] was 89 % of control and the T/C [4] was 58 % of control.
In the case of [N-]=[N+]=CC(=O)CCC(N)C(=O)O (stereo not given), the T/C (dose: 0.78 mg/kg/injection, schedule: Q07DX003 (ip), vehicle: saline) is reported as 57 % of control, the T/C (dose: 1.56 mg/kg/injection, schedule: Q07DX003 (ip), vehicle: saline) is reported as 48 % of control and the T/C (dose: 3.13 mg/kg/injection, schedule: Q07DX003 (ip), vehicle: saline) is reported as 73 % of control. The T/C (dose: 50.0 mg/kg/injection, schedule: Q07DX003 (ip), vehicle: saline) was 10 % of control.
With OCC1(CO)COC2(CCCCC2)N1 the T/C (dose: 100.0 mg/kg/injection, schedule: Q07DX002 (ip), vehicle: saline) was 118 % of control and 102 % of control and the T/C (dose: 400.0 mg/kg/injection, schedule: Q07DX002 (ip), vehicle: saline) was 112 % of control and 122 % of control.
CCCCCCCCC(C)C(=O)N1CCCC1C(=O)N1C(CC(=O)CC)CC(C)CC1C(=O)NC(C)C(=O)NC(C)(C)C(=O)NC(C)(C)C(=O)NC(C(=O)NC(C)C(=O)NC(C)(C)C(=O)NC(C)(C)C(=O)NC(C)CN(C)CCO)C(C)CC (stereo not given) (X1-P[X2]A[Aib][Aib]IA[Aib][Aib]-X3; configuration not given here) was tested, and the T/C (dose: 0.31 mg/kg/injection, schedule: Q07DX002 (ip), vehicle: Klucel (hydroxypropylcellulose) (HPC)) was 123 % of control, the T/C (dose: 1.25 mg/kg/injection, schedule: Q07DX002 (ip), vehicle: Klucel (hydroxypropylcellulose) (HPC)) was 86 % of control and 91 % of control and the T/C (dose: 2.5 mg/kg/injection, schedule: Q07DX002 (ip), vehicle: Klucel (hydroxypropylcellulose) (HPC)) was 119 % of control. For the same compound, the T/C (dose: 5.0 mg/kg/injection, schedule: Q07DX002 (ip), vehicle: Klucel (hydroxypropylcellulose) (HPC)) was 103 % of control and 104 % of control and the T/C (dose: 10.0 mg/kg/injection, schedule: Q07DX002 (ip), vehicle: Klucel (hydroxypropylcellulose) (HPC)) was 102 % of control.
In the case of O=[N+]([O-])O.O=[N+]([O-])O.[NH-]C1CCCCC1[NH-].[Pt+2] (stereo not given), the T/C (dose: 0.5 mg/kg/injection, schedule: Q07DX002 (ip), vehicle: dextrose) is reported as 101 % of control, the T/C (dose: 2.0 mg/kg/injection, schedule: Q07DX002 (ip), vehicle: dextrose) is reported as 62 % of control and 81 % of control and the T/C (dose: 4.0 mg/kg/injection, schedule: Q07DX002 (ip), vehicle: dextrose) is reported as 62 % of control and 81 % of control. For the same compound, the T/C (dose: 8.0 mg/kg/injection, schedule: Q07DX002 (ip), vehicle: dextrose) was 27 % of control and 33 % of control.
In the case of C[CH2][Ge]1([CH2]C)[CH2]CC2(CCN(CCCN(C)C)C2)C[CH2]1, the T/C [9] is reported as 97 % of control, the T/C (dose: 25.0 mg/kg/injection, schedule: Q07DX002 (ip), vehicle: saline) is reported as 105 % of control and the T/C (dose: 50.0 mg/kg/injection, schedule: Q07DX002 (ip), vehicle: saline) is reported as 110 % of control.
For C/C=C(\C)C(=O)OC1C(C)=C2C(C1OC(=O)CCCC)C(C)(OC(C)=O)CC(OC(=O)CCCC)C1(O)C2OC(=O)C1(C)O (stereo not given), the T/C (dose: 1.68 mg/kg/injection, schedule: Q07DX002 (ip), vehicle: Klucel (hydroxypropylcellulose) (HPC)) was 54 % of control, the T/C (dose: 3.37 mg/kg/injection, schedule: Q07DX002 (ip), vehicle: Klucel (hydroxypropylcellulose) (HPC)) was 87 % of control and the T/C (dose: 6.75 mg/kg/injection, schedule: Q07DX002 (ip), vehicle: Klucel (hydroxypropylcellulose) (HPC)) was 61 % of control. For the same compound, the T/C (dose: 13.5 mg/kg/injection, schedule: Q07DX002 (ip), vehicle: Klucel (hydroxypropylcellulose) (HPC)) was 105 % of control.
With CCCNC1=C(C)C(=O)C2=C(C1=O)[C@H](COC(N)=O)[C@]1(OC)[C@@H]3N[C@@H]3CN21 the T/C (dose: 0.78 mg/kg/injection, schedule: Q07DX002 (ip), vehicle: saline) was 72 % of control, the T/C (dose: 1.56 mg/kg/injection, schedule: Q07DX002 (ip), vehicle: saline) was 85 % of control and the T/C (dose: 3.12 mg/kg/injection, schedule: Q07DX002 (ip), vehicle: saline) was 84 % of control. The T/C (dose: 6.0 mg/kg/injection, schedule: Q07DX002 (ip), vehicle: suspension in saline) was 84 % of control, the T/C [9] was 25 % of control and the T/C (dose: 12.0 mg/kg/injection, schedule: Q07DX002 (ip), vehicle: suspension in saline) was 34 % of control. For the same compound, the T/C (dose: 12.5 mg/kg/injection, schedule: Q07DX002 (ip), vehicle: saline) was 6 % of control.
